Experimental data from patent publication US20120328721A1, “ALOE VERA SPROUT CONCENTRATE OR EXTRACT HAVING SUPERIOR SKIN CELL GROWTH PROMOTION, ANTIOXIDANT, AND ANTI-ALLERGY EFFECTS” (l, priority 2009, published 2012).

Tested on: type I collagen mRNA
Assay: Promotion of collagen synthesis (type I collagen mRNA, RT-PCR)
Type: cell-based
Conditions: positive control vitamin C 100 μg/ml
Protocol: To evaluate the inhibitory activity against MMP-1 gene expression of Aloe vera shoot concentrate, the change of mRNA expression was measured. RNA was extracted by using Trizol (Invitrogen, USA) according to the guanidium thiocyanate-phenol-chloroform extraction method, and then RT-PCR was carried out by using an All-in-one RT-PCR kit (SuperBio, Korea). PCR (reverse transcription at 50° C. for 30 minutes, inactivation of reverse transcriptase at 96° C. for 3 minutes, 25 cycles of 94° C. for 1 minute, 48° C. for 1 minute and 72° C. for 1 minute) was carried out by using an MMP-1 primer of Table 9, and actin was used as a control group. To evaluate the activity for the promotion of collagen synthesis of Aloe vera shoot concentrate, the expression of collagen mRNA was measured. RT-PCR was carried out with the same method as Experimental Example 9 except that the condition was 30 cycles of 94° C. for 1 minute, 62° C. for 1 minute and 72 ° C. for 1 minute, and collagen primer of Table 11 was used.

## O=C1O[C@H]([C@@H](O)CO)C(O)=C1O [vitamin C]
Column 100 μg/ml
  Type I collagen expression amount (%): 131.1%
Column 200 μg/ml
  Type I collagen expression amount (%): 156.3%
